# Experimental data from PMC3095715 (Chemical biology & drug design, 2011).
# Biological target: human C3 (Homo sapiens, UniProt P01024)
# Experiment: Surface plasmon resonance
# Assay type: binding
# Conditions: SPR
# human C3, sequence (P01024 23-1663): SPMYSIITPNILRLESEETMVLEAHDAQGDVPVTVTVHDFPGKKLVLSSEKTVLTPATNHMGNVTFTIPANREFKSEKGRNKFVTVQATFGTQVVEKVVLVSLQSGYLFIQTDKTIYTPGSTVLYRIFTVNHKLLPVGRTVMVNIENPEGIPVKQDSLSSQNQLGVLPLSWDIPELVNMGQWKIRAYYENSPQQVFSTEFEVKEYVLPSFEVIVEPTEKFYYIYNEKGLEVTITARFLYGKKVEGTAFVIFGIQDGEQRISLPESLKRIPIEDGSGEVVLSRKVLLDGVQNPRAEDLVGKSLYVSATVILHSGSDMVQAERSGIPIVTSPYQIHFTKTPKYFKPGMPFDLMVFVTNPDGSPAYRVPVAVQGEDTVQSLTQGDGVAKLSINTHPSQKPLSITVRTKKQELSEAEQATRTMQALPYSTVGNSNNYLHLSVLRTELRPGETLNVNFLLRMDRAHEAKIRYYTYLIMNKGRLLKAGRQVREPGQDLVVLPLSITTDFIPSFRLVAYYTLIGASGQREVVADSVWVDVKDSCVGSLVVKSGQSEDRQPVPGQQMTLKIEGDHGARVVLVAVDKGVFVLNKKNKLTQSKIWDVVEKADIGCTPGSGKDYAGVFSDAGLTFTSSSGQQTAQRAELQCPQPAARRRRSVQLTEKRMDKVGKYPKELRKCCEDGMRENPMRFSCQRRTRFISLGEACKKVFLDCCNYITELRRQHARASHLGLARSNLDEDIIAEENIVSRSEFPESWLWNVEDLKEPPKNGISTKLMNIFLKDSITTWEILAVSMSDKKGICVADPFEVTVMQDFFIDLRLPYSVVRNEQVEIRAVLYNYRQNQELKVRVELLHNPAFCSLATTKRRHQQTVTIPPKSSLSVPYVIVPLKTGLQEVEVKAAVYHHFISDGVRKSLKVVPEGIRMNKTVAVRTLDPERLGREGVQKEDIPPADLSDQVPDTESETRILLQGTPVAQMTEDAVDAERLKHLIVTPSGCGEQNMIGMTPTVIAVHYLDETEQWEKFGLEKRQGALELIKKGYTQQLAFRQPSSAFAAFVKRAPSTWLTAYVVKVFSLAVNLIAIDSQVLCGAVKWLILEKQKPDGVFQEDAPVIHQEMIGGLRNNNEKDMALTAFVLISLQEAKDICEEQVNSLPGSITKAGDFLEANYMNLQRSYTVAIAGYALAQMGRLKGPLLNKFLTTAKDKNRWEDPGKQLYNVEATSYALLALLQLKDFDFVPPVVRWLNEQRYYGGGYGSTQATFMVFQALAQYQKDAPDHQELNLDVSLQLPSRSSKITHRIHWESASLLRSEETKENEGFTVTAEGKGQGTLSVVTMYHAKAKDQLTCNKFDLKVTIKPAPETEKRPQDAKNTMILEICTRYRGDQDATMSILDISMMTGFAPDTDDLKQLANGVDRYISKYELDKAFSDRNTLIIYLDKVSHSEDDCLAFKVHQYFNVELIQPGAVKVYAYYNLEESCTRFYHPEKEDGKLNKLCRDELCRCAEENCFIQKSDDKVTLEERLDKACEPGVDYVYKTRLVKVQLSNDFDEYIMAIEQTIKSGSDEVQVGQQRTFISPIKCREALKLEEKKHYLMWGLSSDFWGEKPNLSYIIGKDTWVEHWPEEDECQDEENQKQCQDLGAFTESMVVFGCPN
substance,measurement,value
Ac-W[CVWQDWGAWRC]W-(PEG)8-K-(biotin)-NH2 (disulfide) [Peptide X],Binding to C3 (result in words),not to bind to C3
